Legend:
[1] = system: AsPC-1 cells; assay: Cell growth of AsPC-1 cells (cell counting); format: cell-based, human; details: 0.1 μM, 48 h; AsPC-1 cells (FIG. 9)
Protocol: FIG. 9. Effect of Orexin-B anti-OX1R antibodies on cell growth of AsPC-1 cells. Cells were incubated with 0.1 μM of OxB or antibodies for 48 h in culture medium and then cells were counted in order to estimate the cellular growth.
The aims of this study were: 1/ to investigate the presence of OX1R in human PAC cell lines and to analyze orexin-A effects in relation to apoptosis; 2/ to develop an in vivo heterotopic xenograft model from the cell lines expressing OX1R, for the study of tumor growth in response to Orexin-A. The expression of OX1R was studied at mRNA (RT-PCR), proteins (immunocytochemistry) and functional levels in 3 PAC cell lines (AsPC-1, HPAF-II and SW1990). The development of an animal model (heterotopic xenograft) from the cell line expressing OX1R, has allowed studying the effect of Orexin-A in tumor growth. Resected tumors were analyzed by immunohistochemistry. Only AsPC-1 cell line expresses OX1R.
The development of antibodies directed against OX1R were produced by a phage display strategy and the antibody selection was performed by using HEK and HEK stably expressing OX1R (HEK-OX1R) cell lines. […] Cells were incubated with 0.1 μM of OxB or antibodies for 48 h in culture medium and then cells were counted in order to estimate the cellular growth. […]

[2] = system: HEK stably expressing OX1R (HEK-OX1R); assay: Cell growth of HEK-OX1R cells (cell counting); format: cell-based; details: 0.1 μM, 48 h
Protocol: The development of antibodies directed against OX1R were produced by a phage display strategy and the antibody selection was performed by using HEK and HEK stably expressing OX1R (HEK-OX1R) cell lines. […] Cells were incubated with 0.1 μM of OxB or antibodies for 48 h in culture medium and then cells were counted in order to estimate the cellular growth. […] We have tested the ability of antibodies to inhibit the cellular growth in cancer cell lines derived from and pancreas cancer (AsPC-1 cells).

[3] = system: AsPC-1 cells; assay: Quantification of apoptotic cells by annexin V-PE labeling in AsPC-1 cells; format: cell-based, human; details: 48 hr; for effect of SHP-2 inhibitor on orexin-induced apoptosis: AsPC-1 cells, NSC-87877 50 μM with 1 μM orexin-A
Protocol: FIG. 4A-C. Effect of orexin-A on apoptosis in AsPC-1 cells. A, SHP-2 protein tyrosine phosphatase inhibitor, NSC-87877, blocks orexin-induced apoptosis. AsPC-1 cells were challenged with (black bars) or without (white bars) 1 μM orexin-A for 48 hr in the absence or presence of NSC-87877 (50 μM). Apoptosis was measured by determination of annexin V-PE binding, and results are expressed as the percentage of apoptotic cells; B and C: Indirect immunostaining of activated caspase-3 in AsPC-1 cells in the presence or absence of orexin-A. Paraformaldehyde-fixed AsPC-1 cells were challenged with (orexin-A) or without (basal) 1 μM orexin-A for 48 hr. Activated caspase-3 immunostaining is shown in B and scored in C. Results are means±SE of three separate experiments. ***p<0.001; ns, non-significant.
(§1) AsPC-1, SW 1990, HPAF-II and HPAF-II/hOX1R cells (seeded at 5×10^4 cells/well) were grown in 24-well plates for 24 hr under the culture conditions described above. The culture medium was then replaced every 24 hr with fresh medium with or without orexin-A (GL Biochemicals) at a concentration of 1 μM in the presence or absence of the SHP-2 inhibitor, NSC-87877 (50 μM) (Calbiochem, VWR International SAS, France). At the end of the treatment (48 hr), apoptotic cells were determined using the Guava Nexin™ kit (Guava Technologies, Hayward, Calif., USA), which discriminates between apoptotic and non-apoptotic cells (Rouet-Benzineb P, Rouyer-Fessard C, Jarry A, et al. Orexins Acting at Native OX1 Receptor in Colon Cancer and Neuroblastoma Cells or at Recombinant OX1 Receptor Suppress Cell Growth by Inducing Apoptosis. J Biol Chem 2004; 279:45875-86), analyzed with the Guava Personal Cell Analysis (PCA) system (Merck-Millipore, Guyancourt, France), and counted (2,000 events) (Voisin et al, 2008, as above). Results are expressed as the percentage of apoptotic phycoerythrin-labelled Annexin V (Annexin V-PE) positive cells and are the means of 3 independent analyses.

[4] = system: HPAF-II cells expressing recombinant OX1R; assay: Quantification of apoptotic cells by annexin V-PE labeling in recombinant OX1R/HPAF-II cells; format: cell-based, human; details: OX1R-expressing HPAF-II cells; NSC-87877 50 μM with 1 μM orexin-A
Protocol: FIGS. 5A and B. Effect of orexin-A on apoptosis in OX1R expressing recombinant OX1R/HPAF-II cells. A, Parental HPAF-II and recombinant OX1R/HPAF-II cells were challenged with (black bars) or without (white bars) 1 μM orexin-A for 48 hr in the absence or presence of the SHP-2 protein tyrosine phosphatase inhibitor, NSC-87877 (50 μM). Apoptosis was measured by determination of annexin V-PE binding. Results are expressed as the percentage of apoptotic cells, and are the means±SE of three separate experiments. ***p<0.001; ns, non-significant; B, paraformaldehyde-fixed HPAF-II cells and recombinant OX1R/HPAF-II cells were challenged with or without (Basal) 1 μM orexin-A for 48 hr. Indirect immunostaining of activated caspase-3 in parental HPAF-II cells (left panels) and recombinant OX1R/HPAF-II cells (right panels) in the presence (bottom panels) or tabsence (top panels) of orexin-A is illustrated in B. […]
AsPC-1, SW 1990, HPAF-II and HPAF-II/hOX1R cells (seeded at 5×10^4 cells/well) were grown in 24-well plates for 24 hr under the culture conditions described above. […] Results are expressed as the percentage of apoptotic phycoerythrin-labelled Annexin V (Annexin V-PE) positive cells and are the means of 3 independent analyses.

[5] = system: parental HPAF-II cells; assay: Quantification of apoptotic cells by annexin V-PE labeling in parental HPAF-II cells; format: cell-based, human; details: parental HPAF-II cells; NSC-87877 50 μM
Protocol: FIGS. 5A and B. Effect of orexin-A on apoptosis in OX1R expressing recombinant OX1R/HPAF-II cells. A, Parental HPAF-II and recombinant OX1R/HPAF-II cells were challenged with (black bars) or without (white bars) 1 μM orexin-A for 48 hr in the absence or presence of the SHP-2 protein tyrosine phosphatase inhibitor, NSC-87877 (50 μM). Apoptosis was measured by determination of annexin V-PE binding. Results are expressed as the percentage of apoptotic cells, and are the means±SE of three separate experiments. ***p<0.001; ns, non-significant; B, paraformaldehyde-fixed HPAF-II cells and recombinant OX1R/HPAF-II cells were challenged with or without (Basal) 1 μM orexin-A for 48 hr. Indirect immunostaining of activated caspase-3 in parental HPAF-II cells (left panels) and recombinant OX1R/HPAF-II cells (right panels) in the presence (bottom panels) or tabsence (top panels) of orexin-A is illustrated in B.
as §1

## orexin-B: 28 amino acid hypothalamic neuropeptide, SEQ ID NO:3
[1]
  inhibition of cell growth: able to inhibit the cell growth
[2]
  reduction of HEK-OX1R cell number: 40±3%

## O=S(=O)(O)c1ccc2cc(N=Nc3cc(S(=O)(=O)O)c4cccnc4c3O)ccc2c1 [NSC-87877]
[3]
  effect of SHP-2 inhibitor on orexin-induced apoptosis: reverse orexin-induced apoptosis
[3]; listed as NSC 87877
  effect of SHP-2 inhibitor on orexin-induced apoptosis: totally abolished
[3]; NSC 87877 (50 μM) in the absence of orexin-A
  percentage of apoptotic cells (annexin V-PE): 4.6%±0.9
[3]; NSC 87877 (50 μM) in the presence of 1 μM orexin-A
  percentage of apoptotic cells (annexin V-PE): 4.8%±0.5
[4]
  effect of SHP-2 inhibitor on orexin-A-induced apoptosis: totally abolished
[5]
  effect of SHP-2 inhibitor on apoptosis: no effect

— patent US20150140015A1, “METHODS AND PHARMACEUTICAL COMPOSITIONS FOR THE TREATMENT OF PANCREATIC CANCER” (INSERM (Institut National de la Sante et de la Recherche …, priority 2013, published 2015)
